Results as given in patent US20050026810A1, “Treatment of male sexual dysfunction” (Pfizer Inc., priority 2003, published 2005).
Values joined by “and” are separate entries in the source; they are usually repeats but may differ in a detail not shown here. Equal entries are not always repeated.

Tests used:
[1] = test system: PCA-induced ejaculation in anaesthetised rats; experiment: p-chloroamphetamine (PCA)-induced ejaculation and penile erection in anaesthetised rats; assay type: in vivo, rat
Procedure: In order to study penile; erection and ejaculation the method used was based on the methodology taught in Yonezawa et al. (2000) Life Sciences 67, 3031-3039. For ease of reference, this methodology is described below:
Male Sprague Dawley rats, weighing 350-450 g, are used. Prior to the experiments the animals are housed in groups (2 rats per cage) under controlled 12 h light-dark cycle (lights on at 07:00), constant temperature (23±1° C.) and humidity (55±5%). They have free access to standard food pellets and water.
Rats are anesthestised with sodium pentobarbitone (50 mg/kg, i.p.) and are placed in the supine position. The penis is extruded from its sheath and gently held by a wooden applicator positioned at the base of the penis. The test compounds are administered by intravenous infusion and p-chloroamphetamine (PCA) (5-10 mg/kg) is administered i.p. immediately before the sheath retraction and the penile responses, including penile erection, redding and expansion of the penile body, glans erection, engorgement and slight flaring of the glans and cup, glans erection with intense flaring of the glans, are recorded. Latencies from PCA administration to the initial penile response and ejaculation is also measured in seconds.
The effect of a test compound on p-chloroamphetamine (PCA) induced ejaculation is also assessed by weighing the ejaculates accumulated over 30 mins. A suitable method using conscious rats is described in Renyi (1985) Neuropharmacology, Vol. 24. No. 8, pp 697-704.

[2] = molecular target: vasopressin V1a receptors (Rattus norvegicus, UniProt P30560); conditions: cited from earlier work
[3] = Plasma concentration in the copulatory behaviour study; assay type: in vivo, rat; conditions: 0.05 mgkg^-1 sc, rats
[4] = molecular target: oxytocin receptors; conditions: read-out: OT; cited from earlier work
[5] = test system: copulatory behaviour in conscious rats; experiment: Copulatory behaviour in conscious rats (ejaculatory latency); assay type: in vivo, rat; conditions: 0.05 mgkg^-1 sc
Procedure: For all the sexual behavour tests, the male rats were placed in an observation arena (50-60 cm diameter), starting 5 hours into the dark cycle and observed under red ilumination. Three to four minutes after placing the male in the arena, a receptive female (ovariectomised, oestradiol benzoate/progesterone injection 48 hour before behavioural study) was introduced into the arena and the following parameters noted: • i) ejaculatory latency (EJL; time taken from addition of receptive female into the arena to ejaculation); • ii) copulatory efficiency (CE; ejaculatory latency/the number of ihtromissions to ejaculation, i.e. the number of seconds between intromissions); • iii) intromission frequency (IF; the number of intromissions to ejaculation); • iv) mount frequency (MF; the number of mounts to ejaculation); • v) post ejaculatory interval (PEI; the time taken from ejaculation to the commencement of copulatory behaviour).
Rodent copulatory behaviour is characterised by a series of mounts, with and without vaginal insertion (50-80% of mounts result in intromission [vaginal penetration]) and ejaculation occurs after 6 to 12 intromissions. Each intromission lasts a matter of seconds—it is not possible to quantify intromission length i.e. intravaginal latency. The effect of L-371257 was assessed on a number of copulatory parameters (see above). We have focused ejaculatory latency as a clinical biomarker of time taken to achieve ejaculation.

vasopressin V1a receptors, sequence (P30560 whole entry): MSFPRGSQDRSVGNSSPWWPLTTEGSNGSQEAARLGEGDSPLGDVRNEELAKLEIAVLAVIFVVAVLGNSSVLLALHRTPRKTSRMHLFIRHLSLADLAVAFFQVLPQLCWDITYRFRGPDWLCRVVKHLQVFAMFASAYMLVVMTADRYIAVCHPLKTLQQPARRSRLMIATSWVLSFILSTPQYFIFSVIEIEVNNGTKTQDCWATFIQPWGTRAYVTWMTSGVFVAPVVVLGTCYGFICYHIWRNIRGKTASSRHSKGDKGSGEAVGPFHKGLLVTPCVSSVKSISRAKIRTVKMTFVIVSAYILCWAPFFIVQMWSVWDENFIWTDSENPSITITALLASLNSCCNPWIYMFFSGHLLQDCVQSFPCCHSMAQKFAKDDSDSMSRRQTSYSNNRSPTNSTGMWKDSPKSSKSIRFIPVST

Structure (SMILES) | time taken for the rats to achieve erection ([1]; anaesthetised rats, PCA) | Ejaculation delayed (near maximal effect) ([1]; free plasma concentration 30.9 nM, intravenous infusion, anaesthetised rats) [%] | ejaculation and penile erection, in words ([1]; plasma conc 11.4 nM and 30.9 nM) | effect on PCA-induced ejaculation ([1]; plasma concentration of 9-31 nM, anaesthetised rats) | Ki [2] [nM] | Plasma conc [3] [nM] | Ki [4] [nM] | other effects on copulatory behaviour [5] | increase of ejaculatory latency ([5]; P<0.05 vs vehicle) [%] | Ejaculatory latency ([5]; plasma conc ~30 nM, mean ± sem, n = 8)
COC1CCN(Cc2nnc(C3CCN(c4ccccn4)CC3)n2Cc2ccccc2)CC1 [Compound 1, 4-[4-Benzyl-5-(4-methoxy-piperidin-1-ylmethyl)-4H-[1,2,4]triazol-3-yl]-3,4,5,6-tetrahydro-2H-[1,2′]bipyridinyl] | not significantly affected | 100 | * At both of these concentrations Compound 1 delayed ejaculation without affecting penile erection. | significantly delayed |  |  |  |  |  | 
COc1cc(OC2CCN(C(C)=O)CC2)ccc1C(=O)N1CCC(N2C(=O)OCc3ccccc32)CC1 [L-371,257] |  |  |  |  | 3.7 | ~30 | 19 | no other significant effects | 67 | 266 s and 266.4 ± 30.9 s
